This note sets out measurements from patent US20220401564A1 (DANA-FARBER CANCER INSTITUTE, INC., priority 2019, published 2022).

The target of one experiment is T1, VHL (Homo sapiens, UniProt P40337).
T1 construct: Cells stably expressing the BRD4BD2-GFP with mCherry reporter (40) were seeded; endogenous in cells
The experiment can be described thus: Cellular VHL engagement assay (BRD4BD2-GFP / mCherry reporter cells). Format: cell-based. To be noted: with 250 nM AT1, 5 h. As to the method:
Cells stably expressing the BRD4BD2-GFP with mCherry reporter (40) were seeded at 30-50% confluency in 384-well plates with 50 μL per well of FluoroBrite™ DMEM media (Thermo Fisher Scientific, A18967) supplemented with 10% FBS a day before compound treatment. Compounds and 250 nM AT1((2S,4R)-1-(2R)-2-Acetamido-3-[[6-[2-[(6S)-4-(4-chlorophenyl)-2,3,9-trimethyl-6H-thieno[3,2-f][1,2,4]triazolo[4,3-a][1,4]diazepin-6-yl]acetamido]hexyl]thio]-3-methylbutanoyl]-4-hydroxy-N-[4-(4-methylthiazol-5-yl)benzyl)pyrrolidinine-2-carboxamide) were dispensed using a D300e Digital Dispenser (HP), normalized to 0.5% DMSO, and incubated with the cells for 5 h. The assay plate was imaged immediately using an Acumen® High Content Imager (TTP Labtech) with 488 nm and 561 nm lasers in a […] grid per well format. The resulting images were analyzed using CellProfiler™.
A series of image analysis steps (an ‘image analysis pipeline’) was constructed. First, the red and green channels were aligned and cropped to target the middle of each well (to avoid analysis of the heavily clumped cells at the edges). A background illumination function was calculated for both red and green channels of each well individually and subtracted to correct for illumination variations across the 384-well plate from various sources of error. An additional step was then applied to the green channel to suppress the analysis of large auto fluorescent artifacts and enhance the analysis of cell specific fluorescence by way of selecting for objects under a given size (30 A.U.) and with a given shape (speckles). mCherry-positive cells were then identified in the red channel by filtering for objects 8-60 pixels in diameter and by using intensity to distinguish between clumped objects. The green channel was then segmented into GFP positive and negative areas and objects were labeled as GFP positive if at least 40% of it overlapped with a GFP positive area. The fraction of GFP-positive cells/mCherry-positive cells in each well was then calculated, and the green and red images were rescaled for visualization.

The target in a further experiment is HDAC3 (Homo sapiens, UniProt O15379). As to the kind of experiment: Change in cellular protein abundance (TMT proteomics) in Kelly cells. In kind it is cell-based. The arrangement: relative change in relative protein abundance with treatment of Kelly cells; endogenous in cells; host or cells: Kelly cells. Particulars: scatter plots FIG. 1 and FIG. 3. As for the experimental part: Lysis buffer (8 M Urea, 50 mM NaCl, 50 mM 4-(2hydroxyethyl)-1-piperazineethanesulfonic acid (EPPS) pH 8.5, protease and phosphatase inhibitors from Roche®) were added to the cell pellets and homogenized by 20 passes through a 21 gauge (1.25 in. long) needle to achieve a cell lysate with a protein concentration between 1-4 mg mL-1. A micro-BCA assay (Pierce™) was used to determine the final protein concentration in the cell lysate. 200 μg of protein for each sample were reduced and alkylated as described in Donovan et al., Elife 7:e38430 (2018).
HDAC3, sequence (O15379 whole entry): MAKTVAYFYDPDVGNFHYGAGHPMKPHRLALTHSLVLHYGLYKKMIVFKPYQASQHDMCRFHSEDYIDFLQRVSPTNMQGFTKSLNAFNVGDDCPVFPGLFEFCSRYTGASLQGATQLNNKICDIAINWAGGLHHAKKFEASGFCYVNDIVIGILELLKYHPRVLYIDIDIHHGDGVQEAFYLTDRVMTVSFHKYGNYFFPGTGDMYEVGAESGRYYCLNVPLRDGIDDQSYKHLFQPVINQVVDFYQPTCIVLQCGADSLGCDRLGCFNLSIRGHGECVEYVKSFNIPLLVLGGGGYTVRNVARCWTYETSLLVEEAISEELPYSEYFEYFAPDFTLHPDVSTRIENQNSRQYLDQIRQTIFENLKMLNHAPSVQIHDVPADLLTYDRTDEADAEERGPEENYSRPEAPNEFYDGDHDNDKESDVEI
Proteins were precipitated using methanol/chloroform. Four volumes of methanol were added to the cell lysate, followed by one volume of chloroform, and finally three volumes of water. The mixture was vortexed and centrifuged to separate the chloroform phase from the aqueous phase. The precipitated protein was washed with three volumes of methanol, centrifuged and the resulting washed precipitated protein was allowed to air dry. The precipitated protein was resuspended in 4 M Urea, 50 mM HEPES pH 7.4, followed by dilution to 1 M urea with the addition of 200 mM EPPS, pH 8. Proteins were first digested with LysC (1:50; enzyme:protein) for 12 hours at room temperature. The LysC digestion was diluted to 0.5 M Urea with 200 mM EPPS pH 8 followed by digestion with trypsin (1:50; enzyme:protein) for 6 hours at 37° C. Tandem mass tag (TMT) reagents (Thermo Fisher Scientific) were dissolved in anhydrous acetonitrile (ACN) according to manufacturer's instructions.
Anhydrous ACN was added to each peptide sample to a final concentration of 30% v/v, and labeling was induced with the addition of TMT reagent to each sample at a ratio of 1:4 peptide:TMT label. The 10-plex labeling reactions were performed for 1.5 hours at room temperature and the reaction quenched by the addition of hydroxylamine to a final concentration of 0.3% for 15 minutes at room temperature. The sample channels were combined at a 1:1:1:1:1:1:1:1:1:1:1 ratio, desalted using Cis solid phase extraction cartridges (Waters®) and analyzed by LC-MS for channel ratio comparison. Samples were then combined using the adjusted volumes determined in the channel ratio analysis and dried down in a speed vacuum. The combined sample was then resuspended in 1% formic acid, and acidified (pH 2-3) before being subjected to desalting with C18 SPE (Sep-Pak®, Waters®). Samples were then offline fractionated into 96 fractions by high pH reverse-phase HPLC (Agilent® LC1260) through an aeris peptide xb-c18 column (Phenomenex®) with mobile phase A containing 5% acetonitrile and 10 mM NH4HCO3 in LC-MS grade H2O, and mobile phase B containing 90% acetonitrile and 10 mM NH4HCO3 in LC-MS grade H2O (both pH 8.0). The 96 resulting fractions were then pooled in a non-continuous manner into 24 fractions and these fractions were used for subsequent mass spectrometry analysis.
Data were collected using an Orbitrap Fusion™ Lumos™ mass spectrometer (Thermo Fisher Scientific, San Jose, Calif., USA) coupled with a Proxeon EASY-nLC™ 1200 LC pump (Thermo Fisher Scientific). Peptides were separated on an EasySpray™ ES803 75 μm inner diameter microcapillary column (ThermoFisher Scientific).
Each analysis used an MS3-based TMT method as described previously. The data were acquired using a mass range of m z 340-1350, resolution 120,000, automatic gain control (AGC) target 1×10^6, maximum injection time 100 ms, dynamic exclusion of 120 seconds for the peptide measurements in the Orbitrap Fusion™ Lumos™ mass spectrometer. Data dependent MS2 spectra were acquired in the ion trap with a normalized collision energy (NCE) set at 55%, AGC target set to 1.5×10^5 and a maximum injection time of 150 ms. […]

T1 sequence (P40337 whole entry, species assumed): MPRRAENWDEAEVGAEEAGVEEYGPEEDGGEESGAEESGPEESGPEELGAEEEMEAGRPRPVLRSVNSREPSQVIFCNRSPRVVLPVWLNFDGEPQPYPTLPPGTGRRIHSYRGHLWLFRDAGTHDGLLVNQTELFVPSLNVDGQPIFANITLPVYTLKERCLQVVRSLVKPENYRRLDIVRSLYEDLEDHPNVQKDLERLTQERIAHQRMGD

Broadly, the IC50 is the concentration that gives 50% inhibition. Read a low IC50 as higher potency. As for `Cc1ncsc1-c1ccc([C@H](C)NC(=O)[C@@H]2C[C@@H](O)CN2C(=O)[C@@H](NC(=O)CCOCCOCCOCCN(CCc2c[nH]c3ccccc23)Cc2ccc(/C=C/C(=O)NO)cc2)C(C)(C)C)cc1` [Compound 3, (2S,4R)-1-((S)-17-(tert-butyl)-3-(4-((E)-3-(hydroxyamino)-3-oxoprop-1-en-1-yl)benzyl)-1-(1H-indol-3-yl)-15-oxo-6,9,12-trioxa-3,16-diazaoctadecan-18-oyl)-4-hydroxy-N—((S)-1-(4-(4-methylthiazol-5-yl)phenyl)ethyl)pyrrolidine-2-carboxamide], at VHL, half-maximal inhibition (IC50) required 15.1 µM. In addition, the “HDAC3 protein levels, relative protein abundance compared to DMSO control” value at HDAC3 was “significant and selective reduction”.
The molecule `Cc1ncsc1-c1ccc([C@H](C)NC(=O)[C@@H]2C[C@@H](O)CN2C(=O)[C@@H](NC(=O)CCOCCOCCOCCOCCN(CCc2c[nH]c3ccccc23)Cc2ccc(/C=C/C(=O)NO)cc2)C(C)(C)C)cc1` [Compound 4] returned an IC50 at VHL of 22.9 µM.
For the molecule `Cc1ncsc1-c1ccc([C@H](C)NC(=O)[C@@H]2C[C@@H](O)CN2C(=O)[C@@H](NC(=O)CCOCCOCCOCCOCCOCCN(CCc2c[nH]c3ccccc23)Cc2ccc(/C=C/C(=O)NO)cc2)C(C)(C)C)cc1` [Compound 5, (2S,4R)-1-((S)-23-(tert-butyl)-3-(4-((E)-3-(hydroxyamino)-3-oxoprop-1-en-1-yl)benzyl)-1-(1H-indol-3-yl)-21-oxo-6,9,12,15,18-pentaoxa-3,22-diazatetracosan-24-oyl)-4-hydroxy-N—((S)-1-(4-(4-methylthiazol-5-yl)phenyl)ethyl)pyrrolidine-2-carboxamide], at VHL, half-maximal inhibition (IC50) required 19.3 µM. For the same molecule, the “HDAC3 protein levels, relative protein abundance compared to DMSO control” value on HDAC3 was “significant and selective reduction”.
On VHL, `Cc1ncsc1-c1ccc(CNC(=O)[C@@H]2C[C@@H](O)CN2C(=O)[C@@H](NC(=O)C2(F)CC2)C(C)(C)C)c(OCCOCCOCCN(CCc2c[nH]c3ccccc23)Cc2ccc(/C=C/C(=O)NO)cc2)c1` [Compound 8, (2S,4R)—N-(2-(2-(2-(2-((2-(1H-indol-3-yl)ethyl)(4-((E)-3-(hydroxyamino)-3-oxoprop-1-en-1-yl)benzyl)amino)ethoxy)ethoxy)ethoxy)-4-(4-methylthiazol-5-yl)benzyl)-1-((S)-2-(1-fluorocyclopropane-1-carboxamido)-3,3-dimethylbutanoyl)-4-hydroxypyrrolidine-2-carboxamide] gave an IC50 of 10.1 µM. This lies in the double-digit micromolar range.
Molecule `Cc1ncsc1-c1ccc([C@H](C)NC(=O)[C@@H]2C[C@@H](O)CN2C(=O)[C@@H](NC(=O)CCOCCOCCN(CCc2c[nH]c3ccccc23)Cc2ccc(/C=C/C(=O)Nc3ccccc3N)cc2)C(C)(C)C)cc1` [Compound 10] returned an IC50 on VHL of 9 µM. On HDAC3, the “HDAC3 protein levels, relative protein abundance compared to DMSO control” value was “significant and selective reduction”.
For the molecule `Cc1ncsc1-c1ccc([C@H](C)NC(=O)[C@@H]2C[C@@H](O)CN2C(=O)[C@@H](NC(=O)CCOCCOCCOCCN(CCc2c[nH]c3ccccc23)Cc2ccc(/C=C/C(=O)Nc3ccccc3N)cc2)C(C)(C)C)cc1` [Compound 11, (2S,4R)-1-((S)-3-(4-((E)-3-((2-aminophenyl)amino)-3-oxoprop-1-en-1-yl)benzyl)-17-(tert-butyl)-1-(1H-indol-3-yl)-15-oxo-6,9,12-trioxa-3,16-diazaoctadecan-18-oyl)-4-hydroxy-N—((S)-1-(4-(4-methylthiazol-5-yl)phenyl)ethyl)pyrrolidine-2-carboxamide], the “HDAC3 protein levels, relative protein abundance compared to DMSO control” value on HDAC3 is “significant and selective reduction”.
The same measure, in the same setting: to `Cc1ncsc1-c1ccc([C@H](C)NC(=O)[C@@H]2C[C@@H](O)CN2C(=O)[C@@H](NC(=O)CCOCCOCCOCCOCCN(CCc2c[nH]c3ccccc23)Cc2ccc(/C=C/C(=O)Nc3ccccc3N)cc2)C(C)(C)C)cc1` [Compound 12, (2S,4R)-1-((S)-3-(4-((E)-3-((2-aminophenyl)amino)-3-oxoprop-1-en-1-yl)benzyl)-20-(tert-butyl)-1-(1H-indol-3-yl)-18-oxo-6,9,12,15-tetraoxa-3,19-diazahenicosan-21-oyl)-4-hydroxy-N—((S)-1-(4-(4-methylthiazol-5-yl)phenyl)ethyl)pyrrolidine-2-carboxamide] belongs “significant and selective reduction”.
